Test system: adult patients with OSA and ES
Assay: MWT, 12-week placebo-controlled parallel study in OSA
Type: in vivo, human
Conditions: for MWT mean sleep latency increase from baseline >=5 minutes, subjects / MWT mean sleep latency increase from baseline >=10 minutes, subjects / MWT mean sleep latency increase from baseline >=15 minutes, subjects / MWT mean sleep latency increase from baseline >=20 minutes, subjects / MWT mean sleep latency increase from baseline >=25 minutes, subjects / MWT mean sleep latency increase from baseline >=30 minutes, subjects: mITT
Procedure: The MWT is an objective test used to measure how alert a subject is during the day. The test consists of four sleep trials with two hours in between the trials. The first trial is performed 1.5-3 hours after the subject's normal wake-up time. Sensors are placed on the head, face, and chin to detect when the subject is asleep and awake during the test. The subject sits quietly in bed with his or her back and head supported by a pillow and is asked to sit still and look straight ahead while trying to stay awake as long as possible. Each trial lasts 40 minutes or until the subject is asleep for 90 seconds. Between trials, the subject stays out of bed and occupies himself or herself to remain awake. Falling asleep in an average of less than eight minutes is considered abnormal. About 40-60% of subjects with normal sleep stay awake for the entire 40 minutes of all four trials.
The study was a 12-week, double-blind, placebo-controlled, parallel design study as described in greater detail in Example 1 (Schweitzer et al., Sleep 40(Abstract Supplement):A237. Abstract 0641 (2017)). Patients were randomized (1:1:2:2:2) to APC 37.5, 75, 150, 300 mg, or placebo for 12 weeks, and were stratified by adherence or non-adherence with primary OSA therapy (adherent definition was use for ≥4 hours per night on >70% of nights). Two patient-reported measures were included as secondary efficacy outcomes to evaluate the effects of APC on functional status and work productivity and activity impairment at baseline and weeks 1, 4, 8, and 12. The Functional Outcomes of Sleep questionnaire short version (FOSQ-10) (Chasens et al., Sleep 32(7):915 (2009)) evaluated the effects of ES on functioning. The Work Productivity and Activity Impairment questionnaire for Specific Health Problems (WPAI:SHP) (Reilly et al., Pharmacoeconomics 4(5):353 (1993); Reilly, Work Productivity and Activity Impairment Questionnaire: Specific Health Problem V2.0 (WPAI: SHP). www.reillyassociates.net/WPAI_SHP) evaluated work productivity impairment among employed patients and overall activity impairment outside of work among all patients for the past 7 days. Four outcomes are available from the WPAI:SHP: Absenteeism (percent work time missed due to health); Presenteeism (percent impairment while working due to health); Percent overall work impairment (calculated from absenteeism and presenteeism); and Percent activity impairment due to health. The FOSQ-10 was evaluated as change over time compared with placebo (least squares (LS) mean); the 4 WPAI outcomes were evaluated at week 12 compared to placebo. Efficacy analyses were based on the modified intent-to-treat population (mITT) and there was no multiplicity adjustment for the FOSQ-10 or WPAI:SHP. Safety and tolerability were assessed based on treatment-emergent adverse events (TEAEs), vital signs, electrocardiogram test, physical exams, Columbia-Suicide Severity Rating Scale, and laboratory tests in the safety population.
This was a 12-week, double-blind, placebo-controlled, parallel-design study. Patients were randomized (1:1:2:2:2) to APC 37.5 mg, 75 mg, 150 mg, or 300 mg, or placebo for 12 weeks, and were stratified by adherence or nonadherence with primary OSA therapy.

[1] = Week 12, Combined JZP-110 doses

NC(=O)OC[C@H](N)Cc1ccccc1 [JZP-110, (R)-2-amino-3-phenylpropyl carbamate]
Co-primary MWT endpoint (37.5, 75, 150, 300 mg, week 12): met at all doses
MWT mean sleep latency increase from baseline >=5 minutes, subjects (Week 1, 37.5 mg): 4 (22.2) n (%)
MWT mean sleep latency increase from baseline >=10 minutes, subjects (Week 1, 37.5 mg): 2 (11.1) n (%)
MWT mean sleep latency increase from baseline >=15 minutes, subjects (Week 1, 37.5 mg): 2 (11.1) n (%)
MWT mean sleep latency increase from baseline >=20 minutes, subjects (Week 1, 37.5 mg): 2 (11.1) n (%)
MWT mean sleep latency increase from baseline >=25 minutes, subjects (Week 1, 37.5 mg): 0 n (%)
MWT mean sleep latency increase from baseline >=30 minutes, subjects (Week 1, 37.5 mg): 0 n (%)
MWT mean sleep latency increase from baseline >=5 minutes, subjects (Week 1, 75 mg): 11 (64.7) n (%)
MWT mean sleep latency increase from baseline >=10 minutes, subjects (Week 1, 75 mg): 6 (35.3) n (%)
MWT mean sleep latency increase from baseline >=15 minutes, subjects (Week 1, 75 mg): 4 (23.5) n (%)
MWT mean sleep latency increase from baseline >=20 minutes, subjects (Week 1, 75 mg): 1 (5.9) n (%)
MWT mean sleep latency increase from baseline >=25 minutes, subjects (Week 1, 75 mg): 1 (5.9) n (%)
MWT mean sleep latency increase from baseline >=30 minutes, subjects (Week 1, 75 mg): 0 n (%)
MWT mean sleep latency increase from baseline >=5 minutes, subjects (Week 1, 150 mg): 27 (81.8) n (%)
MWT mean sleep latency increase from baseline >=10 minutes, subjects (Week 1, 150 mg): 22 (66.7) n (%)
MWT mean sleep latency increase from baseline >=15 minutes, subjects (Week 1, 150 mg): 13 (39.4) n (%)
MWT mean sleep latency increase from baseline >=20 minutes, subjects (Week 1, 150 mg): 9 (27.3) n (%)
MWT mean sleep latency increase from baseline >=25 minutes, subjects (Week 1, 150 mg): 4 (12.1) n (%)
MWT mean sleep latency increase from baseline >=30 minutes, subjects (Week 1, 150 mg): 2 (6.1) n (%)
MWT mean sleep latency increase from baseline >=5 minutes, subjects (Week 1, 300 mg): 28 (75.7) n (%)
MWT mean sleep latency increase from baseline >=10 minutes, subjects (Week 1, 300 mg): 22 (59.5) n (%)
MWT mean sleep latency increase from baseline >=15 minutes, subjects (Week 1, 300 mg): 19 (51.4) n (%)
MWT mean sleep latency increase from baseline >=20 minutes, subjects (Week 1, 300 mg): 14 (37.8) n (%)
MWT mean sleep latency increase from baseline >=25 minutes, subjects (Week 1, 300 mg): 7 (18.9) n (%)
MWT mean sleep latency increase from baseline >=30 minutes, subjects (Week 1, 300 mg): 4 (10.8) n (%)
MWT mean sleep latency increase from baseline >=5 minutes, subjects (Week 1, Combined JZP-110 doses): 70 (66.7) n (%)
MWT mean sleep latency increase from baseline >=10 minutes, subjects (Week 1, Combined JZP-110 doses): 52 (49.5) n (%)
MWT mean sleep latency increase from baseline >=15 minutes, subjects (Week 1, Combined JZP-110 doses): 38 (36.2) n (%)
MWT mean sleep latency increase from baseline >=20 minutes, subjects (Week 1, Combined JZP-110 doses): 26 (24.8) n (%)
MWT mean sleep latency increase from baseline >=25 minutes, subjects (Week 1, Combined JZP-110 doses): 12 (11.4) n (%)
MWT mean sleep latency increase from baseline >=30 minutes, subjects (Week 1, Combined JZP-110 doses): 6 (5.7) n (%)
MWT mean sleep latency increase from baseline >=5 minutes, subjects (Week 4, 37.5 mg): 21 (42.0) n (%)
MWT mean sleep latency increase from baseline >=10 minutes, subjects (Week 4, 37.5 mg): 16 (32.0) n (%)
MWT mean sleep latency increase from baseline >=15 minutes, subjects (Week 4, 37.5 mg): 7 (14.0) n (%)
MWT mean sleep latency increase from baseline >=20 minutes, subjects (Week 4, 37.5 mg): 4 (8.0) n (%)
MWT mean sleep latency increase from baseline >=25 minutes, subjects (Week 4, 37.5 mg): 0 n (%)
MWT mean sleep latency increase from baseline >=30 minutes, subjects (Week 4, 37.5 mg): 0 n (%)
MWT mean sleep latency increase from baseline >=5 minutes, subjects (Week 4, 75 mg): 34 (61.8) n (%)
MWT mean sleep latency increase from baseline >=10 minutes, subjects (Week 4, 75 mg): 25 (45.5) n (%)
MWT mean sleep latency increase from baseline >=15 minutes, subjects (Week 4, 75 mg): 11 (20.0) n (%)
MWT mean sleep latency increase from baseline >=20 minutes, subjects (Week 4, 75 mg): 5 (9.1) n (%)
MWT mean sleep latency increase from baseline >=25 minutes, subjects (Week 4, 75 mg): 2 (3.6) n (%)
MWT mean sleep latency increase from baseline >=30 minutes, subjects (Week 4, 75 mg): 1 (1.8) n (%)
MWT mean sleep latency increase from baseline >=5 minutes, subjects (Week 4, 150 mg): 83 (76.9) n (%)
MWT mean sleep latency increase from baseline >=10 minutes, subjects (Week 4, 150 mg): 54 (50.0) n (%)
MWT mean sleep latency increase from baseline >=15 minutes, subjects (Week 4, 150 mg): 40 (37.0) n (%)
MWT mean sleep latency increase from baseline >=20 minutes, subjects (Week 4, 150 mg): 26 (24.1) n (%)
MWT mean sleep latency increase from baseline >=25 minutes, subjects (Week 4, 150 mg): 13 (12.0) n (%)
MWT mean sleep latency increase from baseline >=30 minutes, subjects (Week 4, 150 mg): 3 (2.8) n (%)
MWT mean sleep latency increase from baseline >=5 minutes, subjects (Week 4, 300 mg): 79 (78.2) n (%)
MWT mean sleep latency increase from baseline >=10 minutes, subjects (Week 4, 300 mg): 63 (62.4) n (%)
MWT mean sleep latency increase from baseline >=15 minutes, subjects (Week 4, 300 mg): 47 (46.5) n (%)
MWT mean sleep latency increase from baseline >=20 minutes, subjects (Week 4, 300 mg): 32 (31.7) n (%)
MWT mean sleep latency increase from baseline >=25 minutes, subjects (Week 4, 300 mg): 15 (14.9) n (%)
MWT mean sleep latency increase from baseline >=30 minutes, subjects (Week 4, 300 mg): 5 (5.0) n (%)
MWT mean sleep latency increase from baseline >=5 minutes, subjects (Week 4, Combined JZP-110 doses): 217 (69.1) n (%)
MWT mean sleep latency increase from baseline >=10 minutes, subjects (Week 4, Combined JZP-110 doses): 158 (50.3) n (%)
MWT mean sleep latency increase from baseline >=15 minutes, subjects (Week 4, Combined JZP-110 doses): 105 (33.4) n (%)
MWT mean sleep latency increase from baseline >=20 minutes, subjects (Week 4, Combined JZP-110 doses): 67 (21.3) n (%)
MWT mean sleep latency increase from baseline >=25 minutes, subjects (Week 4, Combined JZP-110 doses): 30 (9.6) n (%)
MWT mean sleep latency increase from baseline >=30 minutes, subjects (Week 4, Combined JZP-110 doses): 9 (2.9) n (%)
MWT mean sleep latency increase from baseline >=5 minutes, subjects (Week 12, 37.5 mg): 18 (36.7) n (%)
MWT mean sleep latency increase from baseline >=10 minutes, subjects (Week 12, 37.5 mg): 16 (32.7) n (%)
MWT mean sleep latency increase from baseline >=15 minutes, subjects (Week 12, 37.5 mg): 10 (20.4) n (%)
MWT mean sleep latency increase from baseline >=20 minutes, subjects (Week 12, 37.5 mg): 5 (10.2) n (%)
MWT mean sleep latency increase from baseline >=25 minutes, subjects (Week 12, 37.5 mg): 0 n (%)
MWT mean sleep latency increase from baseline >=30 minutes, subjects (Week 12, 37.5 mg): 0 n (%)
MWT mean sleep latency increase from baseline >=5 minutes, subjects (Week 12, 75 mg): 35 (64.8) n (%)
MWT mean sleep latency increase from baseline >=10 minutes, subjects (Week 12, 75 mg): 25 (46.3) n (%)
MWT mean sleep latency increase from baseline >=15 minutes, subjects (Week 12, 75 mg): 15 (27.8) n (%)
MWT mean sleep latency increase from baseline >=20 minutes, subjects (Week 12, 75 mg): 7 (13.0) n (%)
MWT mean sleep latency increase from baseline >=25 minutes, subjects (Week 12, 75 mg): 3 (5.6) n (%)
MWT mean sleep latency increase from baseline >=30 minutes, subjects (Week 12, 75 mg): 1 (1.9) n (%)
MWT mean sleep latency increase from baseline >=5 minutes, subjects (Week 12, 150 mg): 71 (67.6) n (%)
MWT mean sleep latency increase from baseline >=10 minutes, subjects (Week 12, 150 mg): 53 (50.5) n (%)
MWT mean sleep latency increase from baseline >=15 minutes, subjects (Week 12, 150 mg): 39 (37.1) n (%)
MWT mean sleep latency increase from baseline >=20 minutes, subjects (Week 12, 150 mg): 26 (24.8) n (%)
MWT mean sleep latency increase from baseline >=25 minutes, subjects (Week 12, 150 mg): 13 (12.4) n (%)
MWT mean sleep latency increase from baseline >=30 minutes, subjects (Week 12, 150 mg): 0 n (%)
MWT mean sleep latency increase from baseline >=5 minutes, subjects (Week 12, 300 mg): 69 (75.0) n (%)
MWT mean sleep latency increase from baseline >=10 minutes, subjects (Week 12, 300 mg): 60 (65.2) n (%)
MWT mean sleep latency increase from baseline >=15 minutes, subjects (Week 12, 300 mg): 40 (43.5) n (%)
MWT mean sleep latency increase from baseline >=20 minutes, subjects (Week 12, 300 mg): 26 (28.3) n (%)
MWT mean sleep latency increase from baseline >=25 minutes, subjects (Week 12, 300 mg): 12 (13.0) n (%)
MWT mean sleep latency increase from baseline >=30 minutes, subjects (Week 12, 300 mg): 6 (6.5) n (%)
MWT mean sleep latency increase from baseline >=5 minutes, subjects [1]: 193 (64.3) n (%)
MWT mean sleep latency increase from baseline >=10 minutes, subjects [1]: 154 (51.3) n (%)
MWT mean sleep latency increase from baseline >=15 minutes, subjects [1]: 104 (34.7) n (%)
MWT mean sleep latency increase from baseline >=20 minutes, subjects [1]: 64 (21.3) n (%)
MWT mean sleep latency increase from baseline >=25 minutes, subjects [1]: 28 (9.3) n (%)
MWT mean sleep latency increase from baseline >=30 minutes, subjects [1]: 7 (2.3) n (%)

From patent US11865098B1, “Methods and compositions for treating excessive sleepiness” (Axsome Malta Ltd., priority 2017, dated 2024)
